Source: US20110224079A1, “SPIROHETEROCYCLIC N-OXYAMIDES AS PESTICIDES” (SYNGENTA CROP PROTECTION LLC, priority 2008, published 2011)

Assays:
[1] = test system: Plutella xylostella (diamond back moth); experiment: Example B5: activity against Plutella xylostella, artificial diet in microtiter plate (larvicide, preventive); format: in vivo; settings: 120 h, L2 larvae, 5 days, read-out: activity (larval mortality, antifeedant, growth regulation)
Experimental: Activity Against Plutella xylostella (Diamond Back Moth)
(Larvicide, Feeding/Residual Contact Activity, Preventive)
24-well microtiter plate (MTP) with artificial diet is treated with test solutions by pipetting. After drying, the MTP's are infested with larvae (L2)(10-15 per well). After an incubation period of 5 days, samples are checked for larval mortality, antifeedant and growth regulation.

[2] = test system: Bemisia tabaci (tobacco white fly); experiment: Example B7: activity against Bemisia tabaci, sprayed bean plants (larvicide, contact/feeding); format: in vivo; settings: 504 h, bean plants with N-2 nymphs sprayed, three weeks, read-out: activity (efficacy, number of emerged adults)
In short: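 After a 4-day egg-laying period and 7 further days, bean plants bearing hatched N-2 nymphs were sprayed with test solutions (2 replicates). Emerged adults were counted three weeks later; efficacy was derived by comparison with untreated samples.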

[3] = test system: Aphis Craccivora (cowpea aphid); experiment: Example B11: translaminar activity against Aphis craccivora on French bean leaves; format: in vivo; settings: 120 h, upper leaf side painted, aphids on lower side, 5 days
Experimental: Translaminar Activity Against Aphis Craccivora (Cowpea Aphid)
French bean leaves (Phaseolus vulgaris) are infested with about 20 mixed age individuals on the lower leaf side using clip cages. 1 day after the infestation, the upper side of the leaves is treated with the test solution by painting. 5 days later, samples are checked for mortality.

[4] = test system: cowpea aphid (Aphis craccivora); experiment: Example B14: insecticide seed treatment of sugarbeet seeds, infestation with cowpea aphid; format: in vivo; settings: 0.3 mg a.i./seed, infested after 14 days, counted 7 days later
Experimental: Insecticide Seed Treatment
Sugarbeet seeds are treated with test compounds at various rates (mg a.i./seed). The seeds are sown into pots filled with soil. After placing the seeds on the soil surface they are further covered with soil. Before and during the bioassays, the plants are grown under optimal greenhouse conditions. After 14 days, the plants are infested with cowpea aphid (Aphis craccivora) by placing one infested pea seedling containing approximately 150 aphids of a population of mixed developmental stages onto each plant. Seven days after infestation, the number of aphids is counted per plant. Each treatment group is replicated 10 times. Each replicate contains 1 plant.

[5] = test system: Myzus persicae (green peach aphid); experiment: Example B17: activity against Myzus persicae on sprayed pepper plants (feeding/residual contact); format: in vivo; settings: 144 h, infested pepper plants sprayed, 6 days
[6] = test system: Myzus persicae (green peach aphid); experiment: Example B13: drench activity against Myzus persicae, pea seedlings in field soil; settings: 168 h, read-out: drench activity (mortality)
[7] = test system: Nilaparvata lugens (brown rice planthopper); experiment: Example B8: activity against Nilaparvata lugens, sprayed rice seedlings (larvicide, feeding/contact); settings: in Oryza sativa, read-out: activity (mortality, growth regulation, effects on F1 generation)
[8] = test system: Myzus persicae (green peach aphid); experiment: Example B2: activity against Myzus persicae, pea seedling roots in test solution (systemic/feeding, curative); settings: 144 h, read-out: activity (mortality)
[9] = test system: Myzus persicae (green peach aphid); experiment: Example B1: activity against Myzus persicae, sprayed sunflower leaf discs (feeding/residual contact, preventive); settings: foliar, 144 h, read-out: activity (mortality)

COCON1C(=O)C(c2cc(C)ccc2C)=C(O)C12CCN(OC)CC2 [P2.2, 3-(2,5-dimethyl-phenyl)-4-hydroxy-8-methoxy-1-methoxymethoxy-1,8-diaza-spiro[4.5]dec-3-en-2-one]
mortality at 400 ppm [1]: > 80%
pest or weed control at 200 ppm [2]: > 80%
mortality at 400 ppm [3]: > 80%
efficacy in the reduction of aphids compared to the untreated control plants [4]: 60%
mortality at 200 ppm [5]: ≥ 80%
mortality at 25 ppm [6]: > 80%
mortality at 400 ppm [7]: > 80%
mortality at 400 ppm [8]: > 80%
mortality at 400 ppm [9]: > 80%
